How the values were obtained:
Type in all cases: in vivo
[1] = tested on: Plutella xylostella (Diamond Back Moth); assay: Example B4: Plutella xylostella, artificial diet, 24-well; settings: 192 h, application rate of 200 ppm, eggs, 8 days after infestation, read-out: control in at least one of the two categories (mortality or growth inhibition)
Procedure: Example B4: Plutella xylostella (Diamond Back Moth)
24-well microtiter plates with artificial diet were treated with aqueous test solutions prepared from 10,000 ppm DMSO stock solutions by pipetting. After drying, Plutella eggs were pipetted through a plastic stencil onto a gel blotting paper and the plate was closed with it. The samples were assessed for mortality and growth inhibition in comparison to untreated samples 8 days after infestation.
(§1) The following compounds gave an effect of at least 80% control in at least one of the two categories (mortality or growth inhibition) at an application rate of 200 ppm: […]

[2] = tested on: Spodoptera littoralis (Egyptian Cotton Leaf Worm); assay: Example B6: Spodoptera littoralis, spray on cotton leaf discs; settings: foliar, 72 h, application rate of 200 ppm, L1 larvae, 3 days after infestation, read-out: control in at least one of the three categories (mortality, anti-feedant effect, or growth inhibition)
Procedure: Example B6: Spodoptera littoralis (Egyptian Cotton Leaf Worm)
Cotton leaf discs were placed onto agar in 24-well microtiter plates and sprayed with aqueous test solutions prepared from 10,000 ppm DMSO stock solutions. After drying the leaf discs were infested with five L1 larvae. The samples were assessed for mortality, anti-feeding effect, and growth inhibition in comparison to untreated samples 3 days after infestation. Control of Spodoptera littoralis by a test sample is given when at least one of the categories mortality, anti-feedant effect, and growth inhibition is higher than the untreated sample.

[3] = tested on: Chilo suppressalis (Striped Rice Stemborer); assay: Example B3: Chilo suppressalis, artificial diet; settings: 144 h, application rate of 200 ppm, L2 larvae, 6 days after infestation, read-out: control in at least one of the three categories (mortality, anti-feedant effect, or growth inhibition)
Procedure: Example B3: Chilo suppressalis (Striped Rice Stemborer)
24-well microtiter plates with artificial diet were treated with aqueous test solutions prepared from 10,000 ppm DMSO stock solutions by pipetting. After drying, the plates were infested with L2 larvae (6-8 per well). The samples were assessed for mortality, anti-feeding effect, and growth inhibition in comparison to untreated samples 6 days after infestation. Control of Chilo suppressalis by a test sample is given when at least one of the categories mortality, anti-feedant effect, and growth inhibition is higher than the untreated sample.

[4] = tested on: Euschistus heros (Neotropical Brown Stink Bug); assay: Example B2: Euschistus heros, spray on soybean leaves; settings: 120 h, application rate of 200 ppm, N2 nymphs, 5 days after infestation, read-out: control in at least one of the two categories (mortality or growth inhibition)
Procedure: Example B2: Euschistus heros (Neotropical Brown Stink Bug)
Soybean leaves on agar in 24-well microtiter plates were sprayed with aqueous test solutions prepared from 10,000 ppm DMSO stock solutions. After drying the leaves were infested with N2 nymphs. The samples were assessed for mortality and growth inhibition in comparison to untreated samples 5 days after infestation.
as §1

[5] = tested on: Plutella xylostella (Diamondback Moth); assay: Example B9: Plutella xylostella, artificial diet, 96-well; settings: 216 h, application rate of 500 ppm, eggs/L1 larvae, 9 days after infestation
Procedure: Example B9: Plutella xylostella (Diamondback Moth)
96-well microtiter plates containing artificial diet were treated with aqueous test solutions, prepared from 10,000 ppm DMSO stock solutions, by a liquid handling robot. After drying, eggs (˜30 per well) were infested onto a netted lid which was suspended above the diet. The eggs hatch and L1 larvae move down to the diet. The samples were assessed for mortality 9 days after infestation.
The following compounds gave an effect of at least 80% mortality at an application rate of 500 ppm: […]

[6] = tested on: Diabrotica balteata (Corn Root Worm); assay: Example B1: Diabrotica balteata, spray on maize sprouts; settings: 96 h, application rate of 200 ppm, L2 larvae, 4 days after infestation, read-out: control in at least one of the two categories (mortality or growth inhibition)
Procedure: Example B1: Diabrotica balteata (Corn Root Worm)
Maize sprouts placed onto an agar layer in 24-well microtiter plates were treated with aqueous test solutions prepared from 10,000 ppm DMSO stock solutions by spraying. After drying, the plates were infested with L2 larvae (6 to 10 per well). The samples were assessed for mortality and growth inhibition in comparison to untreated samples 4 days after infestation.
as §1

[7] = tested on: Myzus persicae (Green Peach Aphid); assay: Example B10: Myzus persicae, sucrose solution, 96-well; settings: 120 h, application rate of 50 ppm, 5 days after infestation
From the text: Example B10: Myzus persicae (Green Peach Aphid)
Test compounds prepared from 10,000 ppm DMSO stock solutions were applied by a liquid handling robot into 96-well microtiter plates and mixed with a sucrose solution. Parafilm was stretched over the 96-well microtiter plate and a plastic stencil with 96 holes was placed onto the plate. Aphids were sieved into the wells directly onto the Parafilm. The infested plates were closed with a gel blotting card and a second plastic stencil and then turned upside down. The samples were assessed for mortality 5 days after infestation.

CC(NC(=O)c1cc(C(F)(F)F)cc(C(F)(F)F)c1)c1nccnc1-n1cncn1 (stereo not drawn) [Compound P46, N-[1-[3-(1,2,4-triazol-1-yl)pyrazin-2-yl]ethyl]-3,5-bis(trifluoromethyl)benzamide]
≥ 80%: percent control (mortality or growth inhibition) at 200 ppm [1] | percent control (mortality, anti-feedant effect or growth inhibition) at 200 ppm [2] | percent control (mortality, anti-feedant effect or growth inhibition) at 200 ppm [3] | percent control (mortality or growth inhibition) at 200 ppm [4]

CC(NC(=O)c1cc(Br)cc(Br)c1)c1nccnc1-n1nccn1 (stereo not drawn) [Compound P38, 3,5-dibromo-N-[1-[3-(triazol-2-yl)pyrazin-2-yl]ethyl]benzamide]
≥ 80%: percent control (mortality or growth inhibition) at 200 ppm [1] | percent control (mortality, anti-feedant effect or growth inhibition) at 200 ppm [2] | mortality at 500 ppm [5] | percent control (mortality, anti-feedant effect or growth inhibition) at 200 ppm [3] | percent control (mortality or growth inhibition) at 200 ppm [6]

CC(NC(=O)c1cc(C(F)(F)F)cc(C(F)(F)F)c1)c1nccnc1-n1nc2ccccc2n1 (stereo not drawn) [Compound P52, N-[1-[3-(benzotriazol-2-yl)pyrazin-2-yl]ethyl]-3,5-bis(trifluoromethyl)benzamide]
≥ 80%: percent control (mortality or growth inhibition) at 200 ppm [1] | percent control (mortality, anti-feedant effect or growth inhibition) at 200 ppm [2] | mortality at 500 ppm [5] | percent control (mortality, anti-feedant effect or growth inhibition) at 200 ppm [3] | percent control (mortality or growth inhibition) at 200 ppm [6]

CC(NC(=O)c1cc(C(F)(F)F)cc(S(=O)(=O)C(F)(F)F)c1)c1nccnc1-n1nccn1 (stereo not drawn) [Compound P13, N-[1-[3-(triazol-2-yl)pyrazin-2-yl]ethyl]-3-(trifluoromethyl)-5-(trifluoromethylsulfonyl)benzamide]
≥ 80%: percent control (mortality or growth inhibition) at 200 ppm [1] | percent control (mortality, anti-feedant effect or growth inhibition) at 200 ppm [2] | mortality at 500 ppm [5] | percent control (mortality, anti-feedant effect or growth inhibition) at 200 ppm [3] | percent control (mortality or growth inhibition) at 200 ppm [6]

CC(NC(=O)c1cc(C2CC2)nc(C(F)(F)F)c1)c1nccnc1-n1nccn1 (stereo not drawn) [Compound P11, 2-cyclopropyl-N-[1-[3-(triazol-2-yl)pyrazin-2-yl]ethyl]-6-(trifluoromethyl)pyridine-4-carboxamide]
≥ 80%: percent control (mortality or growth inhibition) at 200 ppm [1] | percent control (mortality, anti-feedant effect or growth inhibition) at 200 ppm [2] | mortality at 500 ppm [5] | percent control (mortality, anti-feedant effect or growth inhibition) at 200 ppm [3] | percent control (mortality or growth inhibition) at 200 ppm [6]

CC(NC(=O)c1cc(Br)cc(OC(F)(F)F)c1)c1nccnc1-n1nccn1 (stereo not drawn) [Compound P36, 3-bromo-N-[1-[3-(triazol-2-yl)pyrazin-2-yl]ethyl]-5-(trifluoromethoxy)benzamide]
≥ 80%: percent control (mortality or growth inhibition) at 200 ppm [1] | percent control (mortality, anti-feedant effect or growth inhibition) at 200 ppm [2] | mortality at 500 ppm [5] | percent control (mortality, anti-feedant effect or growth inhibition) at 200 ppm [3] | percent control (mortality or growth inhibition) at 200 ppm [6]

CC(NC(=O)c1cc(C2CC2C(F)(F)F)cc(C(F)(F)F)c1)c1nccnc1-n1nccn1 (stereo not drawn) [Compound P9, N-[1-[3-(triazol-2-yl)pyrazin-2-yl]ethyl]-3-(trifluoromethyl)-5-[2-(trifluoromethyl)cyclopropyl]benzamide]
≥ 80%: percent control (mortality or growth inhibition) at 200 ppm [1] | percent control (mortality, anti-feedant effect or growth inhibition) at 200 ppm [2] | mortality at 500 ppm [5] | percent control (mortality, anti-feedant effect or growth inhibition) at 200 ppm [3] | percent control (mortality or growth inhibition) at 200 ppm [6]

CC(NC(=O)c1cc(C2CC2)cc(C(F)(F)F)c1)c1nccnc1-n1nccn1 (stereo not drawn) [Compound P15, 3-cyclopropyl-N-[1-[3-(triazol-2-yl)pyrazin-2-yl]ethyl]-5-(trifluoromethyl)benzamide]
≥ 80%: percent control (mortality or growth inhibition) at 200 ppm [1] | percent control (mortality, anti-feedant effect or growth inhibition) at 200 ppm [2] | mortality at 500 ppm [5] | percent control (mortality, anti-feedant effect or growth inhibition) at 200 ppm [3] | percent control (mortality or growth inhibition) at 200 ppm [6]

CC(NC(=O)c1cc(C2CC2(F)F)cc(C(F)(F)F)c1)c1nccnc1-n1nccn1 (stereo not drawn) [Compound P7, 3-(2,2-difluorocyclopropyl)-N-[1-[3-(triazol-2-yl)pyrazin-2-yl]ethyl]-5-(trifluoromethyl)benzamide]
≥ 80%: percent control (mortality or growth inhibition) at 200 ppm [1] | percent control (mortality, anti-feedant effect or growth inhibition) at 200 ppm [2] | mortality at 500 ppm [5] | percent control (mortality, anti-feedant effect or growth inhibition) at 200 ppm [3] | percent control (mortality or growth inhibition) at 200 ppm [6]

CC(NC(=O)c1cc(F)cc(C(F)(F)F)c1)c1nccnc1-n1nccn1 (stereo not drawn) [Compound P26, 3-fluoro-N-[1-[3-(triazol-2-yl)pyrazin-2-yl]ethyl]-5-(trifluoromethyl)benzamide]
≥ 80%: percent control (mortality or growth inhibition) at 200 ppm [1] | percent control (mortality, anti-feedant effect or growth inhibition) at 200 ppm [2] | mortality at 500 ppm [5] | percent control (mortality, anti-feedant effect or growth inhibition) at 200 ppm [3] | mortality at 50 ppm [7] | percent control (mortality or growth inhibition) at 200 ppm [6]

CC(NC(=O)c1cc(C(F)(F)F)nc(C2(C#N)CC2)c1)c1nccnc1-n1nccn1 (stereo not drawn) [Compound P14, 2-(1-cyanocyclopropyl)-N-[1-[3-(triazol-2-yl)pyrazin-2-yl]ethyl]-6-(trifluoromethyl)pyridine-4-carboxamide]
≥ 80%: percent control (mortality or growth inhibition) at 200 ppm [1] | percent control (mortality, anti-feedant effect or growth inhibition) at 200 ppm [2] | percent control (mortality, anti-feedant effect or growth inhibition) at 200 ppm [3] | percent control (mortality or growth inhibition) at 200 ppm [6] | percent control (mortality or growth inhibition) at 200 ppm [4]

CC(NC(=O)c1cc(Cl)nc(C(F)(F)F)c1)c1nccnc1-n1nccn1 (stereo not drawn) [Compound P22, 2-chloro-N-[1-[3-(triazol-2-yl)pyrazin-2-yl]ethyl]-6-(trifluoromethyl)pyridine-4-carboxamide]
≥ 80%: percent control (mortality or growth inhibition) at 200 ppm [1] | percent control (mortality, anti-feedant effect or growth inhibition) at 200 ppm [2] | mortality at 500 ppm [5] | percent control (mortality, anti-feedant effect or growth inhibition) at 200 ppm [3] | mortality at 50 ppm [7] | percent control (mortality or growth inhibition) at 200 ppm [6]

CC(NC(=O)c1cc(C(F)(F)F)cc(C(F)(F)C2CC2)c1)c1nccnc1-n1nccn1 (stereo not drawn) [Compound P17, 3-[cyclopropyl(difluoro)methyl]-N-[1-[3-(triazol-2-yl)pyrazin-2-yl]ethyl]-5-(trifluoromethyl)benzamide]
≥ 80%: percent control (mortality or growth inhibition) at 200 ppm [1] | percent control (mortality, anti-feedant effect or growth inhibition) at 200 ppm [2] | mortality at 500 ppm [5] | percent control (mortality, anti-feedant effect or growth inhibition) at 200 ppm [3] | percent control (mortality or growth inhibition) at 200 ppm [6]
